Results on one molecule are retold here after patent publication US6906097B2, “8-azaprostaglandin analogs as agents for lowering intraocular pressure” (Allergan, Inc., priority 2002, dated 2005).

pEC50, pIC50: −log10 of the molar value.

In one assay the target is T1, hEP3A (Homo sapiens, UniProt P43115).
T1 construct: expressed in transfected cells
T1 sequence (P43115 1-390): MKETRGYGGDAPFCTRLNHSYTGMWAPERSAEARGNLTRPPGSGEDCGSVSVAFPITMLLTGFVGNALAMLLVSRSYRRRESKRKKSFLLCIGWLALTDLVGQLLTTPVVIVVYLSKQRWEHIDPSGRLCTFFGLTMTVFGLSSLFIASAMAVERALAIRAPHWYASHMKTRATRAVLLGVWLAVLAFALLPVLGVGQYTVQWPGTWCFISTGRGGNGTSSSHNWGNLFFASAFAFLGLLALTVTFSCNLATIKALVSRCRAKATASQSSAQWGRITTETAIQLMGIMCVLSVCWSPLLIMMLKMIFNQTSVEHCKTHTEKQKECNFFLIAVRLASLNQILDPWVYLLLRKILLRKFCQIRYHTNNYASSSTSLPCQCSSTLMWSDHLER
Kind of assay: Functional data, human recombinant EP3A receptor stable transfectants. Type of assay: cell-based. How it is done: Human Recombinant EP1, EP2, EP3, EP4, FP, TP, IP and DP Receptors: Stable Transfectants
Plasmids encoding the human EP1, EP2, EP3, EP4, FP, TP, IP and DP receptors were prepared by cloning the respective coding sequences into the eukaryotic expression vector pCEP4 (Invitrogen). The pCEP4 vector contains an Epstein Barr virus (EBV) origin of replication, which permits episomal replication in primate cell lines expressing EBV nuclear antigen (EBNA-1). It also contains a hygromycin resistance gene that is used for eukaryotic selection. […] HEK-293 cells were grown in DMEM with 10% fetal bovine serum (FBS), 250 μg ml^−1 G418 (Life Technologies) and 200 μg ml^−1 gentamicin or penicillin/streptomycin.
For transfection, the cells were grown to 50-60% confluency on 10 cm plates. The plasmid pCEP4 incorporating cDNA inserts for the respective human prostanoid receptor (20 μg) was added to 500 μl of 250 mM CaCl2. […] After 30 min, 9 ml DMEM were added to the mixture. The DNA/DMEM/calcium phosphate mixture was then added to the cells, which had been previously rinsed with 10 ml PBS. The cells were then incubated for 5 hr at 37° C. in humidified 95% air/5% CO2. The calcium phosphate solution was then removed and the cells were treated with 10% glycerol in DMEM for 2 min. The glycerol solution was then replaced by DMEM with 10% FBS. The cells were incubated overnight and the medium was replaced by DMEM/10% FBS containing 250 μg ml^−1 G418 and penicillin/streptomycin. The following day hygromycin B was added to a final concentration of 200 μg ml^−1.
Ten days after transfection, hygromycin B resistant clones were individually selected and transferred to a separate well on a 24 well plate. At confluence each clone was transferred to one well of a 6 well plate, and then expanded in a 10 cm dish. Cells were maintained under continuous hygromycin selection until use.

In another assay the target is T2, hEP3D (Homo sapiens, UniProt P43115).
T2 construct: expressed in transfected cells; host or cells: COS-7, transient transfection, plasma membrane fraction
T2 sequence (P43115 1-374 isoform P43115-4): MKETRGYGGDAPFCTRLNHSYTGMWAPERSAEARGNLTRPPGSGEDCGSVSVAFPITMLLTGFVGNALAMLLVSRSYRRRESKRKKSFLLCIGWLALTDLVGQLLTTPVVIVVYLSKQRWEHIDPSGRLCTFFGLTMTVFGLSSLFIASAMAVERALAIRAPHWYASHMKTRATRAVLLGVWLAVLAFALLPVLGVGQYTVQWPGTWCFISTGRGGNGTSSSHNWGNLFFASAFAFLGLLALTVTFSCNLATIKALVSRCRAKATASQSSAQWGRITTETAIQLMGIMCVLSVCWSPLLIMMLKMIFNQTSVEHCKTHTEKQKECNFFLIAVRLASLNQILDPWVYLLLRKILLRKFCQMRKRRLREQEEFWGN
Kind of assay: Radioligand binding, hEP3D. Conditions: [3H]PGE2 competition. How it is done: For radioligand binding on the transient transfectants, plasma membrane fraction preparation was as follows. COS-7 cells were washed with TME buffer, scraped from the bottom of the flasks, and homogenized for 30 sec using a Brinkman PT 10/35 polytron. TME buffer was added to achieve a final 40 ml volume in the centrifuge tubes. The composition of TME is […]; 10N HCl is added to achieve a pH of 7.4.
The cell homogenate was centrifuged at 19000 rpm for 20 min at 4° C. using a Beckman Ti-60 rotor. The resultant pellet was resuspended in TME buffer to give a final 1 mg/ml protein concentration, as determined by Biorad assay. Radioligand binding assays were performed in a 200 μl volume.
The binding of [^3H] PGE2 (specific activity 165 […]) at EP3D, receptors and [^3H]-SQ29548 (specific activity 41.5 Ci mmol^−1) at TP receptors were determined in duplicate in at least three separate experiments. Radiolabeled PGE2 was purchased from Amersham, radiolabeled SQ29548 was purchased from New England Nuclear. […] Competition studies were performed using a final concentration of 2.5 or 5 nM [^3H]-PGE2, or 10 nM [^3H]-SQ 29548 and non-specific binding determined with 10 μM of the respective unlabeled prostanoid. […]

In the case of `O=C(O)CCCCCCN1C(=O)CC[C@@H]1CCC(O)Cc1cccc(Cl)c1` (stereo partly drawn) [Example 1, 7-[2S-[3R-Hydroxy-4-(chloro-phenyl)-butyl]-5-oxo-pyrrolidin-1-yl]-heptanoic acid], the negative logarithm of the EC50 (pEC50) on hEP3A is 6.22. In addition, the negative-log IC50 (pIC50) on hEP3D was 7.92.
